{
  "source": "paper PMC6952399",
  "about": "“Structures of lipoprotein signal peptidase II from Staphylococcus aureus complexed with antibiotics globomycin and myxovirescin” (Nature Communications, 2020)",
  "key": {"[1]": {"target": "T1, LspMrs (lipoprotein signal peptidase II from methicillin-resistant Staphylococcus aureus) (Staphylococcus aureus, UniProt Q6GHN9)", "T1 construct": "MGSS-hexahistidine-SSGR-TEV site (ENLYFQ) (N, cleaved yes); made in house; host or cells: E. coli C43 (DE3)", "experiment": "FRET lipopeptide peptidase assay, LspMrs", "format": "biochemical", "settings": "for IC50: IC50, FRET, 0.3 µM enzyme, 80 µM substrate, initial rates; for Rate (RFU/min): replicates 1 and 2", "method": "FRET activity assays. A FRET based assay was developed using a labelled lipopeptide substrate (Supplementary Methods, Supplementary Fig. 3b) to directly monitor the protease activity of LspA. The optimised LspMrs assay buffer included 100 mM Tris/HCl pH 7.8, 150 mM NaCl and 0.09%(w/v) DDM. The corresponding optimized buffer for LspPae included 100 mM MES/NaOH pH 5.6, 150 mM NaCl and 0.05%(w/v) LMNG. All assays were performed at 37 °C.\nReaction mixtures were prepared by pipetting the FRET lipopeptide substrate (dissolved in DMSO) directly into assay buffer at a final concentration of 80 µM. Reaction mixtures were prepared by vortexing (Clifton, cyclone CM-1) for 2 s and incubated at 37 °C, 800 rpm for 10 to 30 min. Equal volumes of the reaction mixture were pipetted into 1.5 mL Eppendorf tubes and 0 to 150 µM globomycin or myxovirescin (in DMSO) added. For dose-response assays, the final DMSO concentration in all reactions was 10%(v/v). Reaction mixtures were pipetted into wells of a 96- (Thermo Scientific) or a 384-well plate (4titude®) and incubated for 10 min at 37 °C in a SpectraMax M3 or a SpectraMax M5e plate reader (Molecular devices) prior to starting the assay. Assays were initiated by adding enzyme to a final concentration in the range 10–300 nM. Total reaction mixture volume was 50 μL. Reactions were monitored by fluorescence (Ex/Em, 320 nm/420 nm) for 30 to 60 min at 37 °C. Initial rates were calculated from the fluorescence intensity versus time progress curves (Supplementary Figs. 5 and 6). Occasionally, lag periods in the progress curves were observed (Supplementary Discussion). In such cases, initial rates were calculated after the lag period had passed (typically 1–5 min) and a steady rate had been established. Dose-response plots to determine IC50 values were generated using Prism® 5 software from GraphPad.\nIt was possible to convert units of fluorescence change into moles of substrate consumed or products formed because pure products of LspA action on Abz-LALAGC*SS-nY-NH2 had been synthesized and were available. These were used to create a standard curve of fluorescence versus moles of the two products in equimolar amounts and to calculate specific activity values."}, "LspMrs N52Q": {"target": "T2, LspMrs N52Q (Staphylococcus aureus, UniProt Q6GHN9, N52Q)", "T2 construct": "MGSS-hexahistidine-SSGR-TEV site (ENLYFQ) (N, cleaved yes); made in house; host or cells: E. coli C43 (DE3)", "experiment": "Gel-shift peptidase assay, LspMrs N52Q mutant", "format": "biochemical, methicillin-resistant Staphylococcus aureus", "method": "LspA mutant genes (N52A, N52Q, G54A, G54P, R110A, R110K, D118N, N133A, N133Q and D136N) were obtained by site-directed mutagenesis of the wild-type lspA construct in pETDuet. Mutagenesis was performed using the Q5® Site-Directed Mutagenesis Kit (New England Biolabs) and specific primers are listed in Supplementary Table 5. The correct mutations were confirmed by sequencing (Eurofins Genomics). Expression and purification of all LspMrs wild-type and mutants for enzyme assays were performed as described above with the following modifications: TALON® Metal Affinity Resin (Clontech) was used for IMAC purification and the detergent DDM was used for membrane solubilisation and protein purification.\nThe peptidase activity of LspMrs and P. aeruginosa LspA (LspPae) was quantified in a coupled gel-shift assay developed previously for LspPae[5]. The P. aeruginosa lipoprotein pre-proICP and the first two enzymes in the bacterial lipoprotein processing pathway Lgt and LspA were expressed and purified, as described. For FRET assays LspMrs was expressed and purified as described above and LspPae was expressed and purified as described in a published protocol.\nGel-shift activity assay. […] Band intensities of ICP were quantified using Image Lab. […]"}},
  "note": "Several values for one entry are separate records, joined by “and”; a condition that tells them apart may be missing. Equal entries are not always repeated.",
  "data": [
    {"compound": "CCCCCC[C@H]1OC(=O)CNC(=O)[C@H]([C@H](C)O)NC(=O)[C@H](CO)NC(=O)[C@H]([C@H](C)CC)NC(=O)[C@H](CC(C)C)N(C)C(=O)[C@@H]1C", "note": "[globomycin]", "values": [
      {"measurement": "IC50", "setting": "[1]", "result": "170 nM and 167 nM"},
      {"measurement": "Rate (RFU/min)", "setting": "[1]; LspMrs + Globomycin, log [globomycin] (µM) 0.00", "result": 0, "unit": "RFU/min"},
      {"measurement": "Rate (RFU/min)", "setting": "[1]; LspMrs + Globomycin, log [globomycin] (µM) -0.30", "result": 0, "unit": "RFU/min"},
      {"measurement": "Rate (RFU/min)", "setting": "[1]; LspMrs + Globomycin, log [globomycin] (µM) -0.52", "result": "0.33 RFU/min and 0.27 RFU/min"},
      {"measurement": "Rate (RFU/min)", "setting": "[1]; LspMrs + Globomycin, log [globomycin] (µM) -0.70", "result": "0.64 RFU/min and 0.57 RFU/min"},
      {"measurement": "Rate (RFU/min)", "setting": "[1]; LspMrs + Globomycin, log [globomycin] (µM) -1.00", "result": "1.06 RFU/min and 1.05 RFU/min"},
      {"measurement": "Rate (RFU/min)", "setting": "[1]; LspMrs + Globomycin, log [globomycin] (µM) -2.00", "result": "1.47 RFU/min and 1.55 RFU/min"},
      {"measurement": "Rate (RFU/min)", "setting": "[1]; LspMrs + Globomycin, log [globomycin] (µM) -3.00", "result": "1.53 RFU/min and 1.49 RFU/min"},
      {"measurement": "IC50", "setting": "LspMrs N52Q", "result": "2430 ± 340", "unit": "nM"}
    ]},
    {"compound": "CCCC1OC(=O)C(C)CC(C)CCCCC(=O)CCCC(CC)C=CC=C(COC)CCC(O)C(O)CC(O)CNC1=O", "note": "(stereo not drawn) [myxovirescin, myxovirescin A1]", "values": [
      {"measurement": "IC50", "setting": "[1]", "result": 151, "unit": "nM"},
      {"measurement": "Rate (RFU/min)", "setting": "[1]; LspMrs + Myxovirescin, log [myxovirescin] (µM) 0.00", "result": 0, "unit": "RFU/min"},
      {"measurement": "Rate (RFU/min)", "setting": "[1]; LspMrs + Myxovirescin, log [myxovirescin] (µM) -0.30", "result": 0, "unit": "RFU/min"},
      {"measurement": "Rate (RFU/min)", "setting": "[1]; LspMrs + Myxovirescin, log [myxovirescin] (µM) -0.52", "result": "0 RFU/min and 0.13 RFU/min"},
      {"measurement": "Rate (RFU/min)", "setting": "[1]; LspMrs + Myxovirescin, log [myxovirescin] (µM) -0.70", "result": "0.55 RFU/min and 0.58 RFU/min"},
      {"measurement": "Rate (RFU/min)", "setting": "[1]; LspMrs + Myxovirescin, log [myxovirescin] (µM) -1.00", "result": 1.04, "unit": "RFU/min"},
      {"measurement": "Rate (RFU/min)", "setting": "[1]; LspMrs + Myxovirescin, log [myxovirescin] (µM) -2.00", "result": "1.47 RFU/min and 1.55 RFU/min"},
      {"measurement": "Rate (RFU/min)", "setting": "[1]; LspMrs + Myxovirescin, log [myxovirescin] (µM) -3.00", "result": "1.49 RFU/min and 1.52 RFU/min"},
      {"measurement": "IC50", "setting": "LspMrs N52Q", "result": "290 ± 80", "unit": "nM"}
    ]}
  ]
}
